Measured values published in patent US8957061B2, “Azetidine derivatives as sphingosine 1-phosphate (S1P) receptor modulators” (Allergan, Inc., priority 2013, dated 2015).

Biological target: T1, human S1P1 receptor (Homo sapiens, UniProt P21453)
T1 construct: expressed in transfected cells; membranes used
Test: GTP γ35S binding assay for S1P1 activity
Assay type: biochemical
Details: activity potency, S1P1 receptor from GTP γ35S; membranes of cells stably expressing the S1P1 receptor; test concentrations 0.08 to 5,000 nM
Description: Compounds were synthesized and tested for S1P1 activity using the GTP γ^35S binding assay. These compounds may be assessed for their ability to activate or block activation of the human S1P1 receptor in cells stably expressing the S1P1 receptor. GTP γ^35S binding was measured in the medium containing (mM) HEPES 25, pH 7.4, MgCl2 10, NaCl 100, dithiothreitol 0.5, digitonin 0.003%, 0.2 nM GTP γ^35S, and 5 μg membrane protein in a volume of 150 μl. Test compounds were included in the concentration range from 0.08 to 5,000 nM unless indicated otherwise. Membranes were incubated with 100 μM 5′-adenylylimidodiphosphate for 30 min, and subsequently with 10 μM GDP for 10 min on ice. Drug solutions and membrane were mixed, and then reactions were initiated by adding GTP γ^35S and continued for 30 min at 25° C. Reaction mixtures were filtered over Whatman GF/B filters under vacuum, and washed three times with 3 mL of ice-cold buffer (HEPES 25, pH7.4, MgCl2 10 and NaCl 100). Filters were dried and mixed with scintillant, and counted for ^35S activity using a β-counter. Agonist-induced GTP γ^35S binding was obtained by subtracting that in the absence of agonist. Binding data were analyzed using a non-linear regression method.

T1 sequence (P21453 whole entry): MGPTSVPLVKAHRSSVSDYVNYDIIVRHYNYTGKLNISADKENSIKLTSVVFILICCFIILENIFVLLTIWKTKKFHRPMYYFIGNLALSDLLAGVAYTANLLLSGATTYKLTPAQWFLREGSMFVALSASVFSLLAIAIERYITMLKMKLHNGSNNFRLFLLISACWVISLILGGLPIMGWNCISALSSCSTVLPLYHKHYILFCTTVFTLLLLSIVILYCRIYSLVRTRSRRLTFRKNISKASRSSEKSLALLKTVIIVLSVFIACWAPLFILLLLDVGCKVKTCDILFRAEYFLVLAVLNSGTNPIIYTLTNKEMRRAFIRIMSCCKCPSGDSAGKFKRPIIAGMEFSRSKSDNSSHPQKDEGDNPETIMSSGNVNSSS

## Cc1ccc(CC(CCC[S+]([O-])c2ccc(CN3CC(C(=O)O)C3)cc2)c2cccc(Cl)c2)cc1C (stereo not shown) [Compound 1, 1-(4-{[4-(3-Chlorophenyl)-5-(3,4-dimethylphenyl)pentyl]sulfinyl}benzyl)azetidine-3-carboxylic acid]
  EC50: 121 nM
